Laboratory results from patent US6596712B2, “Treatment of carcinomas using squalamine in combination with other anti-cancer agents or modalities” (Genaera Corporation, priority 1996, dated 2003).

Assays:
NHE = assay: Direct addition to PS 120 fibroblasts during measurement of exchanger activity; format: cell-based; conditions: no pretreatment
Description: Direct addition of squalamine to PS 120 fibroblasts during measurement of the exchanger activity had no effect.

[1] = system: bovine retinal endothelial cells not treated with VEGF; assay: Growth of endothelial cells not treated with VEGF; format: cell-based; conditions: 24 and 48 hours; up to 30 μg/ml
Procedure: In conducting this in vitro analysis, the following cell lines were tested: (a) bovine retinal endothelial cells; (b) 9L and C6 rat glioma cells; (c) human H80 glioma cells; and (d) VX2 rabbit carcinoma cells (the same type as the tumors implanted in the rabbit corneal micropocket assay test described above). The endothelial mitogen which was used in this analysis was VEGF at a concentration of 20 ng/ml.
The cells were allowed to attach overnight to tissue culture plates containing an optimized growth media. Following attachment, the cells were exposed to solvent only or 5 to increasing concentrations of squalamine (0, 10, 20, 30, 60, and 90 μg squalamine/ml). Cell growth was counted daily for three days using a Coulter Counter. A total of 10,000 cells per well were plated and each experimental concentration was tested in quadruplicate. The results were then averaged. The bovine retinal endothelial cells were grown and treated in an identical manner to the other cell lines, […]
Percentage endothelial cell growth inhibition (%I) was determined by the following equation: [formula]

[2] = Squalamine toxicity test in rats; format: in vivo; conditions: 20 mg/kg/day i.p. for more than 30 days; maintained up to 200 days
Procedure: A squalamine toxicity test was performed in another animal model. Conventional cytotoxic chemical compounds are quite toxic. […] For this reason, it is administered only one time to a patient. The use of BCNU is described on pages 304 and 305 of Calabresi in Medical Oncology, supra. In order to test the toxicity of squalamine, a group of rats was given a daily squalamine dose of 20 mg/kg/day (i.p.) for more than 30 days and maintained for up to 200 days following dosing.

[3] = system: Human androgen dependent LNCaP cells; assay: LNCaP xenograft with hormonal ablation (Example 7); format: in vivo, athymic mice
Procedure: Human androgen dependent LNCaP cells (2×10^6 cells/flank in both flanks) were implanted subcutaneously with an equal volume of Matrigel™ in forty athymic mice. These animals were followed with periodic bleedings until serum human PSA levels exceeded 100 ng/mL and tumor volume measurements exceeded 1000 mm^3 (approximately six weeks after implantation). All animals were then surgically castrated and were randomized into five treatment groups with 8-10 animals per group. One group of animals was not treated further (controls), while a second group immediately began daily intraperitoneal injection of 20 mg/kg/day squalamine (five days per week with a two day respite). A third group of animals began to receive squalamine (20 mg/kg/day squalamine, five days per week with a two day respite) when their serum human PSA levels reached values of 4-10 ng/mL. A fourth group of mice began squalamine treatment (20 mg/kg/day squalamine, five days per week with a two day respite)when serum human PSA values reached 20-40 ng/mL, and a fifth group began squalamine treatment when serum human PSA levels reached 100 ng/mL.
Similarly, the serum human PSA levels fell to undetectable levels with a nadir at two weeks after castration, but by week three the serum human PSA levels began to rise in all control animals. […] For animals treated with squalamine concomitant with the fall in human PSA after castration, six of ten animals were treated for 6-10 weeks. Three mice in this group never experienced a post-orchiectomy PSA nadir, and one mouse experienced an early death of unknown etiology. The remaining six animals in this group experienced a post-orchiectomy PSA nadir of less than 1 ng/mL and maintained this negligible level for the duration of squalamine therapy.
Tissue histology was carried out on the tumor masses (or the site of tumor implantation, in the instance of the animals which underwent successful squalamine treatment) to examine the distribution of integrins in these tissues. […] Thus, part of the mechanism by which squalamine successfully alters LNCaP tumor growth is by interfering with cellular integrin expression that is associated with tumor aggressiveness.

Calu-6 = Calu-6 lung tumor xenograft with carboplatin; format: in vivo, nude BALBc mice; conditions: carboplatin 60 mg/kg i.p. single dose, squalamine 20 mg/kg once daily for 5 days
Procedure: About 5×10^6 cells from each of two human lung tumor lines, H460 (a rapidly proliferating large cell carcinoma cell line, ATCC HTB-177) and Calu-6 (an anaplastic carcinoma, ATCC HTB-56), were inoculated subcutaneously in the right foreleg of nude BALBc mice. Once tumors were visible (3-5 days) with a mean volume of approximately 50-80 mm^3, mice were treated intraperitoneally with 60 mg/kg carboplatin (single dose) or 20 mg/kg/squalamine (once daily for 5 days) or a combination of carboplatin and squalamine. There were 8 mice per group. Tumor growth inhibition was scored by quantifying the size of tumors once control tumors reached a size of 1.0 gram and determining the ratio of mean treated tumor size to mean control tumor size (T/C). Tumor growth inhibition was then scored as 100% x [1-(T/C)]. A separate antitumor activity variable, tumor growth delay, was scored for the tumors by determining the length of time it required for the mean tumor size in a treatment group to reach a size of 500 mm^3 (B. A. Teicher et al., Anticancer Research 18, 2567-2574 (1998)). The tumor growth inhibition seen with carboplatin plus squalamine was greater than that seen with carboplatin or squalamine alone. The relative inactivity of squalamine as a single agent by this assay endpoint supports the idea that squalamine is synergistic with carboplatin in the inhibition of these two human lung tumor xenografts. Similarly, it was determined that squalamine enhanced the tumor growth delay caused by carboplatin by an enhancement factor of >2.3 (Table 7).

[4] = system: Syngeneic mammary carcinoma MCA-4 tumor cells; assay: MCA-4 mammary carcinoma tumor growth delay with radiation; format: in vivo, C3Hf/Kam male mice
Procedure: Syngeneic mammary carcinoma MCA-4 tumor cells (5×10^5) were injected intramuscularly into the right legs of C3Hf/Kam male mice (4 months of age). When the tumors reached 6 mm in diameter, the mice were randomly assigned to receive: (a) no treatment, (b) squalamine alone (20 mg/kg/day b.i.d. for 11-14 days), (c) 15 Gy of gamma irradiation, or (d) squalamine plus 15 Gy of gamma rays. Tumor growth was followed until tumors reached at least 12 mm in diameter. The effect of squalamine on tumor radioresponse was determined by absolute and normalized tumor growth delays (AGD and NGD). AGD is defined as the time in days for tumors treated with radiation (or squalamine) to grow from 8 to 12 mm minus the time in days for untreated tumors to grow from 8-12 mm. NGD is defined as the time in days for tumors treated with both squalamine and radiation to grow from 8 to 12 mm minus the time in days for tumors treated with squalamine only to grow from 8 to 12 mm. An enhancement factor (EF) was determined as the ratio of NGD to AGD. The EF for squalamine with 15 Gy gamma rays calculated from the observed times for tumor growth (Table 8) is >1.5.

[5] = tissue histology after successful squalamine treatment

CC(C)[C@@H](CC[C@@H](C)[C@H]1CC[C@H]2[C@@H]3[C@H](O)C[C@H]4C[C@@H](NCCCNCCCCN)CC[C@]4(C)[C@H]3CC[C@]12C)OS(=O)(=O)O [Squalamine, squalamine]
effect of direct addition during measurement of exchanger activity (NHE): no effect
cell proliferation by endothelial cells not treated with VEGF [1]: statistically unaffected
toxicity, health of animals [2]: remained healthy
post-orchiectomy PSA nadir ([3]; 20 mg/kg/day i.p. five days per week, 6-10 weeks from castration, six animals): less than 1 ng/mL
tumor masses ([3]; 20 mg/kg/day i.p. from castration): eventually disappeared in all six animals
expression of the integrin α6β4 [3, 5]: increase
expression of the integrin αvβ3 [3, 5]: reduction in the expression
Tumor Growth Inhibition (T/C) (Calu-6): 8%
AGD ([4]; absolute tumor growth delay): 0 days
Time to Grow From 8 to 12 mm ([4]; squalamine 20 mg/kg/day b.i.d. for 11-14 days, 15 Gy gamma irradiation): 6 days
